Test results from US4579848A, “5-substituted[1,2,4]triazolo[1,5-c]pyrimidin-2-amines” (American Cyanamid Company, priority 1984, dated 1986).

Test system: immunologically stimulated human basophils
Experiment: Inhibition of histamine release from immunologically stimulated human basophils
Assay type: cell-based
Details: Leukocyte, 1 h; human leukocytes challenged with anti-IgE or antigen, 60 minutes at 37° C.; linear regression; read-out: ED50 (the concentration in μM which causes a 50% inhibition of histamine release)
Procedure: The novel compounds of this invention have been tested by the procedure of Lichtenstein, L. M. and Osler, A. G., J. Exp. Med., 120, 507-530 (1964), which evaluates the ability of compounds to inhibit mediator (histamine) release from immunologically stimulated human basophils.
Eighty milliliters of blood is withdrawn from subjects with known histamine release to anti-IgE, ragweed antigen or other specific allergen, using four 20 ml heparinized tubes. This 80 ml of blood is mixed with 20 ml of saline containing 0.6 g of dextrose and 1.2 g of dextran. The blood is allowed to sediment at room temperature in two 50 ml polycarbonate centrifuge tubes until a sharp interface develops between the red cells and plasma (60-90 minutes). The plasma (top) layer from each tube is withdrawn by pipet and transferred to respective 50 ml polycarbonate tubes. The plasma is centrifuged for 8 minutes at 110X g at 4° C. The supernatant is carefully poured off as completely as possible and the cell button is resuspended in 2-3 ml of Tris-A buffer using a siliconized Pasteur pipet. The resuspension is accomplished by drawing the liquid gently in and out of the pipet, with the tip below the liquid, until an even suspension of cells is obtained. Sufficient Tris-A buffer is then added to bring the volume in the tube to about 45 ml and the tube is centrifuged at 110X g for 8 minutes at 4° C. The supernatant is poured off and the cell button is resuspended and centrifuged as described above. The supernatant is poured off and the cell button is suspended in 2-3 ml of Tris-ACM buffer to make the final volume sufficient to allow addition to the reaction tubes.
Reaction tubes containing anti-IgE or antigens, either alone or with test compound in a total volume of 0.2 ml are prepared and placed in a 37° C. bath. The cells are warmed to 37° C. and frequently swirled to ensure an even suspension, while 1.0 ml aliquots are added to each reaction tube. The tubes are then incubated for 60 minutes at 37° C., vortexing the tubes gently every 15 minutes to keep the cells evenly suspended. When the reaction is complete, the tubes are centrifuged at 4° C. for 10 minutes at 1500 rpm to sediment the cells. One ml aliquots of supernatant are transferred to 12X 75 mm polyethylene tubes and 0.2 ml of 8% perchloric acid is added to each tube. Blanks and totals are included in each test. The blanks have cells and all reagents except antigen or anti-IgE. The totals contain 0.24 ml of 8% perchloric acid, one ml of cells and 0.2 ml of buffer. All samples are then centrifuged to remove the precipitate protein.
This automated method has been described by Siraganian, R. P., in Anal. Biochem., 57, 383 (1974) and J. Immunol. Methods, 7, 283 (1975) and is based on the manual method of Shore, P. A., et al., J. Pharmacol. Exp. Ther., 217, 182 (1959).
The automated system consists of the following Technicon Autoanalyzer II components: Sampler IV, Dual-Speed Proportioning Pump III, Fluoronephelometer with a narrow pass primary filter 7-60 and a secondary filter 3-74, Recorder, and Digital Printer. The manifold used is the one described by Siraganian vide supra, with the following modifications: the dialyzer is omitted; all pumping tubes pass through a single proportioning pump with large capacity and twice the volume of sample is taken for analysis.
The automated chemistry consists of the following steps: Extraction from alkaline saline into butanol, back extraction into dilute hydrochloric acid by addition of heptane, reaction of histamine with o-phthaldialdehyde(OPT) at high pH and conversion of the OPT adduct to a stable fluorophore with phosphoric acid. The reaction product is then passed through the fluorometer. The full scale response is adjusted to 50 ng histamine base with a threshold sensitivity of approximately 0.5 ng.
The instrument blank (wash) is subtracted from the ng histamine of each sample. […]

| SMILES | IC50 [µM] |
| --- | --- |
| CC(=O)Nc1nc2ccnc(-c3cccc(C(F)(F)F)c3)n2n1 | 20 |
| OC(CCl)CNc1nc2ccnc(-c3cccc(C(F)(F)F)c3)n2n1 (centres unmarked) [1-Chloro-3-[[5-[3-(trifluoromethyl)phenyl][1,2,4]triazolo[1,5-c]pyrimidin-2-yl]amino]-2-propanol] | 9.5 |
| CN(C)C(=O)c1cccc(-c2nccc3nc(N)nn23)c1 [3-(2-Amino[1,2,4]triazolo[1,5-c]pyrimidin-5-yl)-N,N--dimethylbenzamide] | 11 |
| Nc1nc2ccnc(-c3cccc(C=O)c3)n2n1 [3-(2-Amino[1,2,4]triazolo[1,5-c]pyrimidin-5-yl)benzaldehyde] | 0.8 |
| CCOC(=O)c1cccc(-c2nccc3nc(N)nn23)c1 [3-(2-amino[1,2,4]triazolo[1,5-c]pyrimidin-5-yl)benzoic acid, ethyl ester] | 11 |
| CCOC(=O)c1ccc(-c2nccc3nc(N)nn23)cc1 [4-(2-amino[1,2,4]triazolo[1,5-c]pyrimidin-5-yl)benzoic acid, ethyl ester] | 16 |
| C#Cc1cccc(-c2nccc3nc(N)nn23)c1 [5-(3-Ethynylphenyl)[1,2,4]triazolo[1,5-c]pyrimidin-2-amine] | 14 |
| Cc1cccc(-c2nccc3nc(N)nn23)c1 [5-(3-Methylphenyl)[1,2,4]triazolo[1,5-c]pyrimidin-2-amine] | 7.8 |
| Nc1nc2ccnc(-c3cccc(Br)c3)n2n1 [5-(3-bromophenyl)[1,2,4]triazolo[1,5-c]pyrimidin-2-amine] | 3.3 |
| Nc1nc2ccnc(-c3cccc(Cl)c3)n2n1 [5-(3-chlorophenyl)[1,2,4]triazolo[1,5-c]pyrimidin-2-amine] | 4.3 |
| Cc1cnccc1-c1nccc2nc(N)nn12 [5-(3-methyl-4-pyridinyl)[1,2,4]triazolo[1,5-c]pyrimidin-2-amine] | 3.8 |
| Nc1nc2ccnc(-c3cccc([N+](=O)[O-])c3)n2n1 [5-(3-nitrophenyl)[1,2,4]triazolo[1,5-c]pyrimidin-2-amine] | 3.8 |
| Nc1nc2ccnc(-c3cccnc3)n2n1 [5-(3-pyridinyl)[1,2,4]triazolo[1,5-c]pyrimidin-2-amine] | 49.4 |
| Nc1nc2ccnc(-c3cc[n+]([O-])cc3)n2n1 [5-(4-Pyridinyl)[1,2,4]triazolo[1,5-c]pyrimidin-2-amine, pyridine-1-oxide] | 4.9 |
| Nc1nc2ccnc(-c3ccc(F)cc3)n2n1 [5-(4-fluorophenyl)[1,2,4]triazolo[1,5-c]pyrimidin-2-amine] | 31 |
| Nc1nc2ccnc(-c3ccncc3)n2n1 [5-(4-pyridinyl)[1,2,4]triazolo[1,5-c]pyrimidin-2-amine] | 33 |
| Nc1nc2ccnc(-c3cc(C(F)(F)F)cc(C(F)(F)F)c3)n2n1 [5-[3,5-bis(trifluoromethyl)phenyl][1,2,4]triazolo[1,5-c]pyrimidin-2-amine] | 0.7 |
| Nc1nc2ccnc(-c3cccc(C(Cl)Cl)c3)n2n1 [5-[3-(dichloromethyl)phenyl][1,2,4]triazolo[1,5-c]pyrimidin-2-amine] | 1.2 |
| Nc1nc2ccnc(-c3cccc(OC(F)F)c3)n2n1 [5-[3-(difluoromethoxy)phenyl][1,2,4]triazolo[1,5-c]pyrimidin-2-amine] | 3 |
| Nc1nc2ccnc(-c3cccc(C(F)(F)F)c3)n2n1 [5-[3-(trifluoromethyl)phenyl][1,2,4]triazolo[1,5-c]pyrimidin-2-amine] | 2.7 |
| Cc1cc2nc(N)nn2c(-c2cccc(C(F)(F)F)c2)n1 [7-methyl-5-[3-(trifluoromethyl)phenyl][1,2,4]triazolo[1,5-c]pyrimidin-2-amine] | 100 |
| Cc1cnc(-c2cccc([N+](=O)[O-])c2)n2nc(N)nc12 [8-Methyl-5-(3-nitrophenyl)[1,2,4]triazolo[1,5-c]pyrimidin-2-amine] | 8.7 |
| Cc1cnc(-c2cccc(C(F)(F)F)c2)n2nc(N)nc12 [8-Methyl-5-[3-(trifluoromethyl)phenyl][1,2,4]triazolo[1,5-c]pyrimidin-2-amine] | 5.6 |
| CNc1nc2ccnc(-c3cccc(C(F)(F)F)c3)n2n1 [N-Methyl-5-[3-trifluoromethyl)phenyl][1,2,4]triazolo[1,5-c]pyrimidin-2-amine] | 16 |
| Cc1ccc(S(=O)(=O)Nc2cccc(-c3nccc4nc(N)nn34)c2)cc1 [N-[3-(2-Amino[1,2,4]triazolo[1,5-c]pyrimidin-5yl)phenyl]-4-methylbenzenesulfonamide] | 1.5 |
| CC(=O)Nc1nc2ccnc(-c3cccc(NS(=O)(=O)c4ccc(C)cc4)c3)n2n1 [N-[5-[3-[[(4-Methylphenyl)sulfonyl]amino]phenyl]-[1,2,4]triazolo[1,5-c]pyrimidin-2-yl]acetamide] | 1.7 |
| CC(=O)Nc1nc2c(C)cnc(-c3cccc([N+](=O)[O-])c3)n2n1 [N-[8-Methyl-5-(3-nitrophenyl)[1,2,4]triazolo[1,5-c]pyrimidin-2-yl]acetamide] | 11 |
| CC(=O)Nc1nc2c(C)cnc(-c3cccc(NS(=O)(=O)c4ccc(C)cc4)c3)n2n1 [N-[8-Methyl-5-[3-[[4-methylphenyl)sulfonyl]amino]phenyl][1,2,4]triazolo[1,5-c]pyrimidin-2-yl]acetamide] | 34.4 |

Test system: female Hartley-strain guinea pigs
Experiment: Passive Anaphylaxis Test
Assay type: in vivo, guinea pig
Design: key: If the Fisher test is significant, the compound is considered active; If the rank sum test is significant, the compound is considered to have weak activity
Details: oral, one hour before ovalbumin challenge; standard dose 50 mg/kg; ten animals
Procedure: At -48 hours (relative to antigen challenge at time 0), 2 ml of saline containing 0.2-0.05 IgG hyperimmune serum (depending on batch of antibody used) was injected intraperitoneally (i.p.) into 250-300 g female Hartley-strain guinea pigs. One hour before challenge, the test compound is given to ten animals orally at 4 ml/kg of a suspension in 0.5% carboxymethylcellulose. The standard dose is 50 mg/kg. Ten control animals receive the vehicle only. The challenge consists of an intravenous injection of 0.25-2.0 mg of ovalbumin in one ml of saline. The time to the first observable symptom of anaphylaxis (normally this is a scratching of the nose) and the time to loss of righting reflex are recorded for each animal. Thirty minutes after the challenge the numbers of deceased and living animals are also recorded.
The treated and control groups are compared by a Mann-Whitney rank sum test for the times to symptom and times to collapse. In addition, a Fisher's exact test is done on the number of collapsed vs. noncollapsed for control and treated groups. If the Fisher test is significant, the compound is considered active. If the rank sum test is significant, the compound is considered to have weak activity.

| SMILES | activity in passive anaphylaxis test (Fisher's exact test on collapsed vs. noncollapsed) |
| --- | --- |
| Nc1nc2ccnc(-c3ccccn3)n2n1 [5-(2-pyridinyl)[1,2,4]triazolo[1,5-c]pyrimidin-2-amine] | active |
